Literature values as cited in patent US9445992B2, “Mucosal delivery compositions comprising a peptide complexed with a crown compound and/or a counter ion” (ARISGEN SA, priority 2009, dated 2016).

Settings: in water

pKa: < 2
SMILES: CCCCCCCCCCCC(=O)OC[C@H](COP(=O)(O)OCC(O)CO)OC(=O)CCCCCCCCCCC (stereo partly shown) [DLPG, dilauryloylphosphatidylglycerol]
